Source: US6509341B1, “Carboxylic acid derivatives, carrying amido side-chains; production and use as endothelin receptor antagonists” (Abbott Laboratories, priority 1997, dated 2003)

What was measured:
[1] = molecular target: T1, human ETA receptor (Homo sapiens, UniProt P25101); assay: ETA receptor binding assay ([125I]-ET1, CHO cell membranes); details: cloned human ETA receptor, 25 pM [125I]-ET1, 25° C.
T1 construct: expressed in transfected cells; host or cells: CHO cells (membrane preparation)
T1 sequence (P25101 21-427): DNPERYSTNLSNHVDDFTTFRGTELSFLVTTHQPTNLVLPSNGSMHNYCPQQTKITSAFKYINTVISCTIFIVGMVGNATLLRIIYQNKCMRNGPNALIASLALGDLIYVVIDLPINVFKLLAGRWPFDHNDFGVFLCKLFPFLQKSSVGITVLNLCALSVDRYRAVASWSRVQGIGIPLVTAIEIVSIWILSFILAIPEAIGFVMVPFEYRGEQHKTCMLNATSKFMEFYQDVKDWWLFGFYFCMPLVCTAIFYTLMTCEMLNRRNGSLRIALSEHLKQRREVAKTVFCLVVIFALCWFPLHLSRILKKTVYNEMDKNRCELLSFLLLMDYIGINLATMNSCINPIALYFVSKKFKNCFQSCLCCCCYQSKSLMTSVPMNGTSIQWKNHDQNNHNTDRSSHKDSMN
Description: (§1) Cloned human ETA or ETB receptor-expressing CHO cells were employed for binding studies.
(§2) The ETA or ETB receptor-expressing CHO cells were grown in DmeM NUT MIX F12-medium (Gibco, No. 21331-020) with 10% fetal calf serum (PAA Laboratories GmbH, Linz, No. A15-022), 1 mM glutamine (Gibco No. 25030-024), 100 U/ml penicillin and 100 μg/ml streptomycin (Gibco [sic], Sigma No. P-0781). After 48 hours, the cells were washed with PBS and incubated with 0.05% trypsin-containing PBS at 37° C. for 5 minutes. This was followed by neutralization with medium, and the cells were collected by centrifugation at 300×g.
(§3) For the membrane preparation, the cells were adjusted to a concentration of 10^8 cells/ml of buffer (50 mM tris.HCL [sic] buffer, pH 7.4) and then disintegrated by ultrasound Branson Sonifier 250, 40-70 seconds/constant/output [sic] 20).
(§4) For the ETA and ETB receptor binding assay, the membranes were suspended in incubation buffer (50 mM tris-HCl, pH 7.4 with 5 mM MnCl2, 40 mg/ml Bacitracin and 0.2% BSA) in a concentration of 50 μg of protein per assay mixture and incubated with 25 pM [125I]-ET1 [sic] (ETA receptor assay) or 25 pM [125I]-ET3 [sic] (ETB receptor assay) at 25° C. in the presence and absence of test substance. The nonspecific binding was determined with 10^−7 M ET1. After 30 min, filtration through GF/B glass fiber filters (Whatman, England) in a Skatron cell harvester (Skatron, Lier, Norway) was carried out to separate free and bound radioligand, and the filters was washed with ice-cold tris-HCl buffer, pH 7.4 with 0.2% BSA. The radioactivity collected on the filters was quantified using a Packard 2200 CA liquid scintillation counter.
(§5) Receptor binding data were measured by the binding assay described above for the compounds listed below.

[2] = molecular target: T2, human ETB receptor (Homo sapiens, UniProt P24530); assay: ETB receptor binding assay ([125I]-ET3, CHO cell membranes); details: cloned human ETB receptor, 25 pM [125I]-ET3, 25° C.
T2 construct: expressed in transfected cells; host or cells: CHO cells (membrane preparation)
T2 sequence (P24530 27-442): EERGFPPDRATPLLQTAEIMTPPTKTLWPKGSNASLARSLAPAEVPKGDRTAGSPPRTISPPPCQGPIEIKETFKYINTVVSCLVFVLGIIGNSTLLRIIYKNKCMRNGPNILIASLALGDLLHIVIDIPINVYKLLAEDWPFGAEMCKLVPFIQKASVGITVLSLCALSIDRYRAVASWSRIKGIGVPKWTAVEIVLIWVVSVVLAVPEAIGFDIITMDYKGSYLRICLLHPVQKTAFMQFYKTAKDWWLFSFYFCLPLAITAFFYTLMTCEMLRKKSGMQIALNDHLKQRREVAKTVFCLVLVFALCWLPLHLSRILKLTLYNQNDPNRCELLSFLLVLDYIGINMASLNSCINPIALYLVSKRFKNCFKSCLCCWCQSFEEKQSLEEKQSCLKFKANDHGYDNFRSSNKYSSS
Description: as §1, §2, §3, §4, §5

Row | Compound | Ki [1] | Ki [2] | melting point
1 | Cc1cc(C)nc(OC(C(=O)O)C(OCC(=O)N2CCc3ccccc3C2)(c2ccccc2)c2ccccc2)n1 (centres unmarked) [Compound I-307, 2-(4,6-Dimethyl-2-pyrimidinyloxy)-3-(2-oxo-2-(1,2,3,4-tetrahydroisoquinolin-2-yl)ethoxy)-3,3-diphenylpropionic acid] | 1.6 nM | 10 nM | –
2 | CCCCN(CCCC)C(=O)COC(c1ccccc1)(c1ccccc1)C(Oc1nc(C)cc(C)n1)C(=O)O (centres unmarked) [Compound I-347, 2-(4,6-Dimethyl-2-pyrimidinyloxy)-3-(N,N-dibutylcarbamoylmethoxy)-3,3-diphenylpropionic acid] | 3.8 nM | 155 nM | –
3 | COc1cc2c(cc1OC)CN(C(=O)COC(c1ccccc1)(c1ccccc1)C(Oc1nc(C)cc(C)n1)C(=O)O)CC2 (centres unmarked) [Example 34, 2-(4,6-Dimethylpyrimidin-2-yloxy)-3-(2-oxo-2-(6,7-dimethoxy-1,2,3,4-tetrahydroisoquinolin-2-yl)ethoxy)-3,3-diphenylpropionic acid] | – | – | 145 to 148 °C
4 | Cc1cc(C)nc(OC(C(=O)O)C(OCC(=O)N2Cc3ccccc3C(C)(C)C2)(c2ccccc2)c2ccccc2)n1 (centres unmarked) [Example 35, 2-(4,6-Dimethylpyrimidin-2-yloxy)-3-(2-oxo-2-(4,4-dimethyl-1,2,3,4-tetrahydroisoquinolin-2-yl)ethoxy)-3,3-diphenylpropionic acid] | – | – | 185 to 187 °C

The remaining compounds from weak to strong by Ki [1], led by results:

Row | Ki [1] | Ki [2] | melting point | Compound
5 | 3 nM | 142 nM | – | CCCCN(CCCC)C(=O)COC(c1ccccc1)(c1ccccc1)C(Oc1nc(C)cc(OC)n1)C(=O)O (centres unmarked) [Compound I-349, 2-(4-Methyl-6-methoxy-2-pyrimidinyloxy)-3-(N,N-dibutylcarbamoylmethoxy)-3,3-diphenylpropionic acid]
6 | 1 nM | 12 nM | – | COc1cc(C)nc(OC(C(=O)O)C(OCC(=O)N2CCc3ccccc3C2)(c2ccccc2)c2ccccc2)n1 (centres unmarked) [Compound I-309, 2-(4-Methyl-6-methoxy-2-pyrimidinyloxy)-3-(2-oxo-2-(1,2,3,4-tetrahydroisoquinolin-2-yl)ethoxy)-3,3-diphenylpropionic acid]
7 | 0.4 nM | 142 nM | – | Cc1cc(C)nc(OC(C(=O)O)C(OCC(=O)N(C)c2ccccc2)(c2ccccc2)c2ccccc2)n1 (centres unmarked) [Compound I-109, 2-(4,6-Dimethyl-2-pyrimidinyloxy)-3-(N-methyl-N-phenylcarbamoylmethoxy)-3,3-diphenylpropionic acid]
8 | 0.3 nM | 109 nM | – | COc1cc(C)nc(OC(C(=O)O)C(OCC(=O)N(C)c2ccccc2)(c2ccccc2)c2ccccc2)n1 (centres unmarked) [Compound I-111, 2-(4-methyl-6-methoxy-2-pyrimidinyloxy)-3-(N-methyl-N-phenylcarbamoylmethoxy)-3,3-diphenylpropionic acid]
